Source: ChEMBL document CHEMBL1131200, “Bis-quinolinium cyclophanes: 6,10-diaza-3(1,3),8(1,4)-dibenzena-1,5(1,4)- diquinolinacyclodecaphane (UCL 1684), the first nanomolar, non-peptidic blocker of the apamin-sensitive Ca(2+)-activated K+ channel” (J Med Chem, 1998)

Columns and labels:
Rattus norvegicus [1] = species: Rattus norvegicus; assay: The ratio of the conc of compound to dequalinium to cause 50% inhibition of the after hyperpolarization (AHP) in cultured rat sympathetic neurones; assay type: functional, Sympathetic neuron
Rattus norvegicus [2] = species: Rattus norvegicus; assay: Compound was tested for SKCa blocking action by measuring its ability to inhibit after hyperpolarization (AHP) in cultured rat sympathetic neurones; assay type: functional; conditions: Sympathetic neuron

| Structure (SMILES) | EMR (Rattus norvegicus [1]) | IC50 (Rattus norvegicus [2]) |
| --- | --- | --- |
| c1cc2cc(c1)C[n+]1ccc(c3ccccc31)NCc1ccc(cc1)CNc1cc[n+](c3ccccc13)C2 | 0.01 | 0.003 µM |
| c1ccc2c(c1)c1cc[n+]2Cc2ccc(cc2)Cc2ccc(cc2)C[n+]2ccc(c3ccccc32)NCc2ccc(cc2)Cc2ccc(cc2)CN1 | 0.31 | 0.26 µM |
| c1cc2cc(c1)CNc1cc[n+](c3ccccc13)Cc1ccc(cc1)C[n+]1ccc(c3ccccc31)NC2 | 0.18 | 0.07 µM |
| c1ccc2c(c1)c1cc[n+]2Cc2ccc(cc2)-c2ccc(cc2)C[n+]2ccc(c3ccccc32)NCc2ccc(cc2)Cc2ccc(cc2)CN1 | 0.26 | 0.15 µM |
| c1cc2cc(c1)CNc1cc[n+](c3ccccc13)Cc1cccc(c1)C[n+]1ccc(c3ccccc31)NC2 | 0.22 | 0.13 µM |
| c1ccc2c(c1)c1cc[n+]2Cc2ccc(cc2)C[n+]2ccc(c3ccccc32)NCc2ccc(cc2)CN1 | 0.05 | 0.028 µM |
| c1ccc2c(c1)c1cc[n+]2Cc2ccc(cc2)Cc2ccc(cc2)C[n+]2ccc(c3ccccc32)NCc2ccc(cc2)-c2ccc(cc2)CN1 | 0.8 | 0.28 µM |
| Cc1cc(N)c2ccccc2[n+]1CCCCCCCCCC[n+]1c(C)cc(N)c2ccccc21.[Cl-].[Cl-] [DEQUALINIUM CHLORIDE] | 1 | 0.57 µM |
